Measured values as given in patent US20110033883A1, “IMAGING DYES AND USE THEREOF” (priority 2007, published 2011).
Ru(bpy)2(pic) = [Ru(bpy)2(piCH2)]2+ complex, attached to the peptide through a hexyl spacer; Ahx = NCCCCCC(=O)O

Assays:
human blood platelets [1] = assay: Photobleaching under continuous irradiation at 458 nm of dye-labelled human blood platelets; type: cell-based; details: identical conditions
Excerpt: Some of the advantages associated with the invention may include: • The dye conjugates described are long-lived and environmentally sensitive. The sensitivity of the dye conjugates can be tailored, e.g. to oxygen partial pressure, pH, water content etc., by altering the ligands and/or the metal ion of the dye conjugate. • Photobleaching: bleaching experiments, for example the data presented in FIG. 10, are a measure of the photostability of the dye conjugate under the types of continuous irradiation required for imaging. […] For example a ruthenium-polypyridyl complex covalently bound to an octa arginine peptide required approximately 20 minutes continuous irradiation for the dye to bleach to 50% of its initial intensity. […] The dye conjugates described herein provide a much greater acquisition time which is a significant advantage to the microscopist/microbiologist. • The synthetic yields for coupling of the Rupic unit to amine functionalities are high. The dye conjugates are functionalised with a single, accessible group, allowing unequivocal reaction with nucleophilic functions on peptides or proteins. […] The dye conjugates are easily synthetically modified to change colour, lifetime, and environmental sensitivity and are highly resistant to photobleaching.
FIG. 10 is a graph showing a photobleaching experiment. […]

[2] = tested on: Sp2/0-Ag 14 myeloma cells; assay: Confocal luminescence imaging, incorporation and localization in myeloma cells (DiOC6(3) counterstain); type: cell-based, mouse
Procedure: (§1) Sp2/0-Ag 14 myeloma cells (ATCC number CRL-1581™) were obtained from the ATCC Cell Biology Collection (United Kingdom). Cells were grown in Dulbecco's modified Eagle's medium (Sigma-Aldrich) supplemented with 10% foetal calf serum (Gibco Invitrogen) and 1% L-glutamine (Gibco Invitrogen) at 37° C. and 5% CO2. Cells were harvested after growing for 2 days. The viability was ensured by testing them in a trypan blue assay. In a usual sample less than 1% of the cells were dead. The growth medium was removed by centrifuging the cells at 2000 rpm for 2 min in an Eppendorff centrifuge, washed twice and resuspended in PBS buffer.
To identify where the Ru dye [Ru(bpy)2(PIC-arg8)]^2+ is localizing inside the cell, cells were counterstained with two commercial dyes. Sytox green (Invitrogen) which localizes inside the nucleus; and DiOC6(3) (3,3′-dihexyloxacarbocyanine iodide, Invitrogen) which selectively stains mitochondria and at higher concentration other internal membranes, such as the endoplasmatic reticulum, of living cells. Both dyes can be excited with the 458 nm line of an argon ion laser used for excitation of the [Ru(bpy)2(pic-R8)]^n+ dye, however, their fluorescence is in the green (around 500 nm), and therefore could be easily spectrally separated from the fluorescence of the Ru complex. […]
For the fluorescence and fluorescence lifetime experiments 100 μl aliquots of washed myeloma cells were resuspended in PBS buffer (pH 7.4) and incubated with the 3 μl of the Ru-octopeptide (1.2 mM), resulting in a final dye concentration of 3.5×10^−5 M.
The luminescence images of myeloma cells were recorded with a Zeiss LSM510 Meta confocal microscope, using a 63× oil immersion objective (NA 1.4). […] The luminescence from the Ru complexes was collected using a longpass filter at 560 nm. When Sytox green and/or DiOC6(3) were localised in the same cell, the luminescence from the Ru-dye was collected behind a 615 nm longpass filter, while the Sytox green and DiOC6(3) fluorescence was collected with a 465-510 nm bandpass filter in another channel, or by using the meta option of the instrument.

[3] = tested on: Sp2/0-Ag 14 myeloma cells; assay: Sytox green counterstain for cell viability; type: cell-based, mouse; details: over 2 hours
Procedure: as §1
To identify where the Ru dye [Ru(bpy)2(PIC-arg8)]^2+ is localizing inside the cell, cells were counterstained with two commercial dyes. […] Both dyes can be excited with the 458 nm line of an argon ion laser used for excitation of the [Ru(bpy)2(pic-R8)]^n+ dye, however, their fluorescence is in the green (around 500 nm), and therefore could be easily spectrally separated from the fluorescence of the Ru complex. […]
The luminescence images of myeloma cells were recorded with a Zeiss LSM510 Meta confocal microscope, using a 63× oil immersion objective (NA 1.4). […] The luminescence from the Ru complexes was collected using a longpass filter at 560 nm. […]

[4] = Oxygen quenching of luminescence (Stern-Volmer); type: physicochemical
Procedure: Different oxygen concentrations were adjusted by streaming various O2—N2-mixtures through the solution until equilibrium was reached. The oxygen concentration was measured with an optical O2 electrode (Visiferm DO120, Hamilton). The fluorescence lifetime of the equilibrated dye solutions was measured in a closed-system flow cell.
In air saturated PBS solutions the lifetime drops down to 540 ns when the pic ligand is neutral, and even down to 350 ns, when the pic moiety is deprotonated. Stern-Volmer plots are linear up to air saturated solutions and then start levelling of. The Stern-Volmer quenching constants range actually vary very little with pH 2100 M^−1 for pH 10 to around 2900 M^−1 when the pic moiety is in its neutral state. The corresponding bimolecular rate constants vary between around […] when the pic moiety is deprotonated to […] when the pic moiety is in its neutral state, which is essentially the same within experimental error. This means that within the limited range of the cellular environment the O2 concentration within a cell can be assessed independently of pH using this dye.

[5] = Luminescence intensity as a function of pH, excited state pKa; type: physicochemical; details: excitation at isosbestic point, luminescence intensity vs pH
Procedure: (§2) Resonance Raman spectroscopy was performed on a Horiba Jobin Yvon HR800UV confocal microscope using an Argon ion Laser (458 nm or 514 nm) or a Helium-Neon (HeNe) laser (633 nm) as the exciting wavelength. Ten spectral acquisitions were accumulated and each acquisition was two seconds in length. Steady-state emission spectra were recorded on a Cary Eclipse Fluorescence spectrophotometer, and luminescence lifetimes were obtained using a Picoquant Fluotime 100 TCSPC system exciting at 470 nm and detecting at 600 nm using a narrow band pass dielectric filter. Quantum yields were measured using the comparative method described by Williams et al. In quenching studies, the luminophore/quencher concentrations were corrected for dilution.
(§3) The pH was adjusted with H2SO4 (Sigma-Aldrich) and KOH (Sigma-Aldrich) and measured with a pH meter. UV/vis absorption spectra during the pH titration experiment were corrected for change in volume.
The luminescence wavelength and its intensity are pH dependent. While the emission maximum at pH 7 is at 608 nm, it shifts to higher wavelength with increasing and decreasing pH (λmax (pH 1.3)=623 nm; λmax (pH 11)=616 nm). When the pic ligand is in its neutral state, the luminescence is very bright (Φ=0.06), about 30% more intense than the one of [Ru(bpy)3]^2+. […]

human blood platelets [6] = assay: Fluorescence microscopy of human blood platelets incubated with dye conjugates; type: cell-based
Procedure: Human Blood Platelets were supplied by Niamh Moran and Dermot Kenny and prepared as described Moran et al.
Fluorescence microscopy was performed on human blood platelets incubated in the presence of Ru-Ahx-R5 and Ru-Ahx-R8. […] The process is largely irreversible, removing and washing cells, and resuspending in buffer results in less than 20% loss of emission intensity from the cell. The fluorescence microscopy pictures show intense, long-lived luminescence originating from the platelet; the wavelength of which (around 620 nm) can be assigned to the Ruthenium centres.

[7] = pH titration, ground-state pKa (UV/vis absorption, Henderson-Hasselbalch fit); type: physicochemical
Procedure: ^1H NMR spectra were recorded on a Bruker Advance series 400 MHz NMR spectrometer. The NMR titration experiments were performed following a previously published protocol (Charbonnier and Penades). Mass spectra were acquired using a positive ion mode on a Bruker LC/MS Esquire. Electronic absorption spectra were measured on a Shimadzu 3500 UV-VIS/NIR spectrophotometer. Cyclic voltammetry was carried out using a CH Instruments CH602 electrochemical workstation. A conventional three-electrode cell was used, employing glassy carbon as working, Ag/AgCl as reference or Ag/AgNO3 in acetonitrile, and Pt wire as counter electrodes. Electrochemistry was conducted in water and acetonitrile respectively with 0.1 M phosphate buffer or tetrabutylammonium tetrafluoroborate (TBABF4) as supporting electrolyte under an N2 atmosphere. pH titrations were performed in the pH range 0.5-12. The pH was adjusted by adding aqueous solutions of NaOH or HClO4.
as §3
UV/vis absorption titration curves were fitted with a modified Henderson-Hasselbalch equation which was obtained using Beer-Lambert's law to express the concentration, FIG. 2(b) For fitting the fluorescence titration curve it was assumed that the average lifetime goes linear with the ratio of the two species in equilibrium at the certain pH.
At a shorter wavelength the ππ* transitions centred at the ligands are found: around 350 nm the ππ* transition at the pic ligand, and around 280 nm at the bipyridine ligands. […] The increasing absorption with increasing pH at 350 nm is plotted in FIG. 13B. Fitting this curve with a modified Henderson-Hasselbalch equation results in a pKa1 of 1.72±0.07 and pKa2 of 8.16±0.03. As expected the pH dependence of the other bands is rather minor.

[8] = tested on: mouse SP2/0 myeloma cells; assay: Resonance Raman mapping of myeloma cells; type: cell-based
Procedure: as §2
For the fluorescence and fluorescence lifetime experiments 100 μl aliquots were used and incubated with the 3 μl of the Ru-octopeptide (1.2 mM), resulting in a final dye concentration of 3.5×10^−5 M. If only resonance Raman experiments were performed, the cells were incubated in the medium with dye for 15 minutes prior to the washing step.
The resonance Raman maps of the stained myeloma cells were analyzed using the modelling option implemented in the LabSpec software. A model with 4 components was creating, grouping together similar spectra in one component (background, where there is no dye/no cell, outer cell (membrane), cytoplasm and nucleus). […]

[9] = tested on: bovine aortic epithelial (BAE) cells; assay: Confocal luminescence imaging of bovine aortic epithelial (BAE) cells; type: cell-based; details: BAE cells in PBS buffer, 22° C., excitation 458 nm
Procedure: Bovine aortic endothelium cells were supplied by Dr PM Cummins and cultured as described in Colgon et al.
Here it has been used to image emission spectrum (left) and a confocal image at a excitation wavelength of 458 nm (right) of bovine aortic epithelial (BAE) cells. The dyes were incubated at 22° C. with BAE cells in PBS buffer.

[10] = pH dependence of resonance Raman peak ratios; type: physicochemical; details: ratio of peaks at 1575 and 1317 cm^-1, 458 nm excitation
Procedure: as §2
To evaluate the pH dependence of the resonance Raman data peak ratios were calculated with Labspec5 software. A baseline was drawn along the base of the peak and the area was calculated. Regions for the peaks were 1700 to 1400 cm^−1. The ratio of the peaks for the different protonation states […] 5 replica measurements were recorded for each pH and averaged.
As the pH changes, the pic moiety can be protonated or deprotonated, while the bpy moieties should stay mainly unaffected by changes in pH. […]

[11] = absorption at 350 nm vs pH, modified Henderson-Hasselbalch fit

[Ru(bpy)2(PicH-R8)]^n+: ruthenium centre with two bipyridine ligands and one picH ligand; octaarginine coupled to pic carboxy end via Ahx spacer, amide linkage ({(Ru(bpy)2(picH))-Ahx}-RRRRRRRR-NH2; also: Ru(bpy)2 picH ruthenium complex attached via Ahx spacer)
continuous irradiation time for the dye to bleach to 50% of its initial intensity (human blood platelets [1]): approximately 20 minutes
incubation time after which dye localises in the nucleus [2]: > 40 min
time until penetration into the cells is complete ([2]; 3.5×10^−5 M dye): 15 to 20 min
preference for mitochondria (DiOC6(3) counterstain) ([2]; 20 mins incubation): no special preferences for mitochondria
cell viability (Sytox green exclusion) [3]: did not kill the cells
bimolecular rate constant of oxygen quenching ([4]; pic moiety deprotonated): around 3.6×10^−9 M^−1 s^−1
bimolecular rate constant of oxygen quenching ([4]; pic moiety in its neutral state): 3e-09 M⁻¹ s⁻¹
excited state pKa2* [5]: 8.1±0.2
loss of emission intensity from the cell after removing, washing and resuspending in buffer (human blood platelets [6]): less than 20%
transport across the platelet membrane (human blood platelets [6]; fluorescence microscopy): transported through the cells membrane to accumulate intracellularly
pKa1 [7, 11]: 1.72±0.07
pKa2 [7, 11]: 8.16±0.03
distribution of the dye inside the cell (Raman map, band at 1487 cm^−1) ([8]; myeloma cell incubated for 15 min): distributed throughout the cytoplasm, with less dye in the nucleus

[Ru(bpy)2(pic-KVG)]^n+: [Ru(bpy)2(piCH2)]^2+ attached through a hexyl spacer to KVGFFKR-NH2 (SEQ ID No. 20) ({Ru(bpy)2(pic)-Ahx}-KVGFFKR-NH2; also: ruthenium complex, charge n+)
localisation of the dye in the cells (luminescence image) [9]: concentrates in the membrane

[Ru(bpy)2(PicH2)](PF6)2 [[Ru-LH]^2+]
pKa from ratio of resonance Raman peaks [10]: 8.5±0.2
pKa of ionisable site at the imidazole (higher) [7]: 8.5
pKa of ionisable site at the imidazole (lower) [7]: 1.6

[Ru(dppz)2(PicH2)]ClO4 [[Ru(dppz)2PICH2]^2+]
entry into the cell (resonance Raman imaging) ([8]; mouse SP2/0 myeloma cells, pH 7.4 PBS, cells washed): only interacted with the membrane but did not cross it
